Experimental data: the supplement of paper PMC10307832

How the values were obtained:
Assay in all cases: relative viability (nuclei count vs DMSO), 5 days (fraction); higher = more cells survive
[1] = compound: CC1CC(=O)N(C2=CN=C(N=C2N1C3CCCC3)NC4=C(C=C(C=C4)C(=O)NC5CCN(CC5)C)OC)C [NPK76-II-72-1] + COc1cc2c(Oc3ccc(NC(=O)C4(C(=O)Nc5ccc(F)cc5)CC4)cc3F)ccnc2cc1OCCCN1CCOCC1 [Foretinib] (partner 0.25 µM)
In short: (§1)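 Relative viability divides the nuclei count in treated wells by that in vehicle wells. Lung cancer cell lines were seeded in 1536-well plates, dosed by pin tool the next day, and fixed and stained after 5 days in one step with final 0.05% Triton X-100, 1% formaldehyde and 1 ug/ml Hoechst. Dosing was a single drug or a fixed anchor-drug dose plus five library-drug doses (not always all listed) in √10 steps, and values are medians of duplicate plates imaged at 4×.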

[2] = compound: CC1CC(=O)N(C2=CN=C(N=C2N1C3CCCC3)NC4=C(C=C(C=C4)C(=O)NC5CCN(CC5)C)OC)C [NPK76-II-72-1] + O=C(CCCCCCC(=O)Nc1ccccc1)NO [Vorinostat] (partner 1 µM)
In short: as §1

BI-2536 + Trametinib = compound: CC[C@@H]1C(=O)N(C)c2cnc(Nc3ccc(C(=O)NC4CCN(C)CC4)cc3OC)nc2N1C1CCCC1 [BI-2536] + CC(=O)Nc1cccc(-n2c(=O)n(C3CC3)c(=O)c3c(Nc4ccc(I)cc4F)n(C)c(=O)c(C)c32)c1 [Trametinib] (partner 0.02 µM)
In short: as §1

BI-2536 + Navitoclax = compound: CC[C@@H]1C(=O)N(C)c2cnc(Nc3ccc(C(=O)NC4CCN(C)CC4)cc3OC)nc2N1C1CCCC1 [BI-2536] + CC1(C)CCC(c2ccc(Cl)cc2)=C(CN2CCN(c3ccc(C(=O)NS(=O)(=O)c4ccc(N[C@H](CCN5CCOCC5)CSc5ccccc5)c(S(=O)(=O)C(F)(F)F)c4)cc3)CC2)C1 [Navitoclax] (partner 0.5 µM)
In short: as §1

Cell Line | relative viability ([1]; first compound 0.01 µM) | relative viability ([1]; first compound 0.03162 µM) | relative viability ([1]; first compound 0.1 µM) | relative viability ([1]; first compound 0.3162 µM) | relative viability ([1]; first compound 1 µM) | relative viability ([2]; first compound 0.01 µM) | relative viability ([2]; first compound 0.03162 µM) | relative viability ([2]; first compound 0.1 µM) | relative viability ([2]; first compound 0.3162 µM) | relative viability ([2]; first compound 1 µM) | relative viability (BI-2536 + Trametinib; first compound 0.01 µM) | relative viability (BI-2536 + Trametinib; first compound 0.03162 µM) | relative viability (BI-2536 + Trametinib; first compound 0.1 µM) | relative viability (BI-2536 + Trametinib; first compound 0.3162 µM) | relative viability (BI-2536 + Trametinib; first compound 1 µM) | relative viability (BI-2536 + Navitoclax; first compound 0.01 µM) | relative viability (BI-2536 + Navitoclax; first compound 0.03162 µM) | relative viability (BI-2536 + Navitoclax; first compound 0.1 µM) | relative viability (BI-2536 + Navitoclax; first compound 0.3162 µM) | relative viability (BI-2536 + Navitoclax; first compound 1 µM)
ChaGo-K-1 | 0.923 | 0.91 | 0.994 | 0.92 | 0.882 | 0.703 | 0.735 | 0.809 | 0.687 | 0.789 | 0.9 | 0.875 | 0.733 | 0.181 | 0.202 | 0.939 | 0.691 | 0.461 | 0.311 | 0.346
EBC-1 | 0.103 | 0.121 | 0.0919 | 0.114 | 0.108 | – | – | – | – | – | – | – | – | – | – | 0.327 | 0.28 | 0.171 | 0.173 | 0.159
EKVX | 0.428 | 0.878 | 0.773 | 0.3 | 1.15 | 0.634 | 0.736 | 0.684 | – | 0.921 | 0.313 | 0.343 | 0.379 | 0.155 | 0.151 | 0.786 | 0.874 | 1.02 | 0.15 | 0.114
EMC-BAC-2 | 1.05 | 1.07 | 1.07 | 0.945 | 1.2 | 0.423 | 0.186 | 0.493 | 0.416 | 0.524 | 0.854 | 0.851 | 0.819 | 0.303 | 0.277 | 1.27 | 1.24 | 1.21 | 0.17 | 0.134
EPLC-272H | 0.552 | – | 0.69 | 0.852 | 0.729 | 0.403 | 0.4 | 0.456 | 0.574 | 0.41 | 0.286 | 0.261 | 0.191 | 0.12 | 0.166 | 1.13 | 0.999 | – | 0.0617 | 0.0715
H3255 | 0.838 | 0.797 | 0.854 | 0.633 | 0.867 | 0.873 | 0.605 | 0.722 | – | 0.797 | 0.571 | 0.582 | 0.294 | 0.281 | 0.424 | 0.292 | 0.359 | 0.196 | 0.113 | 0.119
HARA | 0.913 | 1.06 | 0.797 | 0.819 | 1.1 | 0.493 | 0.668 | 0.564 | 0.485 | 0.603 | 0.765 | 0.971 | 0.545 | 0.0894 | 0.156 | 1.15 | 1.17 | 0.98 | 0.103 | 0.0669
HCC-15 | 1.05 | 1.18 | 0.92 | 0.969 | 1.1 | 0.785 | 0.914 | 0.814 | 0.767 | 0.91 | 0.389 | 0.319 | 0.364 | 0.128 | 0.125 | 0.709 | 0.693 | 0.497 | 0.202 | 0.101
HCC-44 | – | – | – | – | – | 1.08 | 1.22 | 1.11 | 1.09 | 1.1 | 1.04 | 1.04 | 1.03 | 0.323 | 0.275 | 0.956 | 1.02 | 0.849 | 0.0892 | 0.095
